Source: patent US20040162247A1, “Therapeutic agent or osteoporosis comprising an active ingredient of quercetin derivatives” (priority 2000, published 2004)

Tests used:
[1] = system: human osteoblast-like cell line Saos-2; experiment: Cell proliferation of Saos-2 cells, MTT method; format: cell-based; details: Saos-2, 3 days
Method: Saos-2 cell line which has similar properties to osteoblasts was obtained from Korean Cell Line Bank affiliated to the Cancer Research Institute of School of Medicine, Seoul National University.
Saos-2 cells were seeded in a RPMI 1640 medium (Gibco BRL, U.S.A.) supplemented with 10% (v/v) FBS, 100 unit/ml penicillin, 100 gg/ml streptomycin and grown to form a monolayer in an incubator at 37° C. under an environment of 5% (v/v) CO2 and saturated humidity. The culture was fed with fresh medium 2 to 3 times a week and subcultured once a week using 0.25% (w/v) trypsin.
Saos-2 cells were distributed into a 96-well plate (20,000 cells/well) and quercetin in 1% DMSO was added to a final concentration of 10-2 to 10^−9 mg/ml, 6 wells per each concentration. As a control group, cells without quercetin were used, and as a comparative group, the cells treated with various concentrations of genistein, being studied as a therapeutic agent for osteoporosis, were used. Cells were grown in an incubator at 37° C. for 3 days and incubated 4 more hours under the same condition after adding MTT (3-[4,5-dimethylthiazol-2-yl]-2,5-diphenyltetrazolium bromide, Triazolyl Blue) to a concentration of 0.05 mg/ml. Then, purple colored for-mazan formed in proportion to the number of viable cells was dissolved in DMSO and measured OD at 550 nm employing ELISA reader.
Cell proliferation rate (%) was evaluated by calculating the ratio of the OD of quercetin added well to the OD of control well, wherein, average value of ODs from 6 wells treated with the same concentration of quercetin was employed (see: Table 1).
cell proliferation rate (%)={(average value of OD at 550 nm of quercetin-treated wells—average value of OD at 550 nm of empty wells)/average value of OD at 550 nm of control wells}×100

[2] = system: ALP activity in osteoblasts (Saos-2); experiment: Alkaline phosphatase (ALP) activity in osteoblasts; format: cell-based, human; details: Saos-2, 3 days
Method: Since osteoblasts have cell specific alkaline phosphatase activity, the effect of quercetin of the invention on ALP activity in osteoblasts was evaluated as follows: the number of cells, concentration of tested agent, and culture condition were same as those used in MTT experiment of Example 1-2, and cells were harvested after 3 day-incubation. Genistein was used as a comparative agent. ALP activity was evaluated by analysing changes of OD at 405 nm result from hydrolysis of p-nitrophenylphosphate to p-nitrophenol and phosphate (see: Table 1).

ovariectomized rats [3] = experiment: Trabecular bone area of tibia in ovariectomized rats;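 for Change Rate (%) of TBA of tibia, of control group: control group rats were ovariectomized and are not the sham group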; format: in vivo, Female SD (Sprague-Dawley) rats; details: OVX rats, 9 weeks i.p. (E2 1 μg/kg/day; quercetin, genistein 10 mg/kg/day); for Change Rate (%) of TBA of tibia, of control group: control group = 100
Method: (§1) Trabecular bone area (TBA) of lumbar and tibia removed from the rats of each group which was treated with various agents for 9 weeks were measured as follows: that is, using a digitalizer of quantitative image analysis system (Wild Leitz Co.), image of each trabecula was obtained on computer monitor by drawing a contour of the trabecula, and then, using a computer, calculated were average areas of trabeculae within a rectangle of 2×10^6 μm^2 area wherein the width is about ⅔ of the length of growth plate which located underneath of growth plate at proximity of tibia. Also, following the number of trabeculae within the rectangle were obtained, average area was multiplied by the number of trabeculae to obtain trabecular bone area of each sample bone, which was analyzed statistically (see: Table 5).

ovariectomized rats [4] = experiment: Trabecular bone area of lumbars in ovariectomized rats;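 for Change Rate (%) of TBA of lumbars, of control group: control group rats were ovariectomized and are not the sham group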; format: in vivo, Female SD (Sprague-Dawley) rats; details: OVX rats, 9 weeks i.p. (E2 1 μg/kg/day; quercetin, genistein 10 mg/kg/day); for Change Rate (%) of TBA of lumbars, of control group: control group = 100
Method: as §1
TBAs of lumbars removed from the animal treated with test agents for 9 weeks were measured employing the same method above (see: Table 6).

ovariectomized rats [5] = experiment: Complete blood count in ovariectomized rats; format: in vivo, Female SD (Sprague-Dawley) rats
Method: (§2) When test agents were administered, for a certain period of time before and after administration, 1.5 ml of blood was sampled from tail vein using a catheter (B.D Co.: 24 G) and subjected to complete blood count (Coulter Co.: JT) and biochemical analyses of plasma (Crone Co.: Airon® 200). During autopsy, blood was sampled from caudal venae cavae and subjected to the analyses above. And then, each sample was frozen to store for measurement of trabecular bone area of femur and examination of internal organs.
Complete blood count which reflects the condition and abnormality of the body was measured to find out abnormality in test animals caused by administrtion of agents. That is, to find out changes in hematopoiesis of test rats, measured were red blood cell (RBC) count, concentration of hemoglobin (Hb) and hematocrit (Ht) of-blood samples obtained from the rats prior to operation and the rats 10 weeks after administrating agents following operation, and to find out changes in immune system such as inflammation and necrosis of tissues, measured were white blood cell count, lymphocyte count, monocyte count, and granulocyte count (see: Table 7).

ovariectomized rats [6] = experiment: Biochemical parameters in plasma of ovariectomized rats; format: in vivo, Female SD (Sprague-Dawley) rats
Method: as §2
Since blood reflects the condition of body, safety of quercetin in the body was evaluated by measuring biochemical parameters: that is, blood samples were obtained from the rat prior to operation, one week after operation, and 10 weeks after operation, and measured were levels of alkaline phosphatase (ALP), calcium, inorganic phosphate, blood urea nitrogen (BUN), creatinin, total cholesterol, HDL-cholesterol and LDL-cholesterol (see: Table 8).

[7] = after operation and drug administration (E2 1 μg/kg/day; quercetin, genistein 10 mg/kg/day i.p.)
[8] = 1 week after operation (start of administration)
[9] = 10 weeks after operation, 9 weeks i.p. (E2 1 μg/kg/day; quercetin, genistein 10 mg/kg/day)

## O=c1c(-c2ccc(O)cc2)coc2cc(O)cc(O)c12 [Genistein, genistein]
[1]; 1 × 10^−2 mg/ml
  MTT assay (% of control group): 66.2 ± 2.8 % of control group
[1]; 1 × 10^−2 mg/ml, listed as genistein
  MTT assay (% of control group): 66 % of control group
[1]; 1 × 10^−3 mg/ml
  MTT assay (% of control group): 85.5 ± 1.1 % of control group
[1]; 1 × 10^−3 mg/ml, listed as genistein
  MTT assay (% of control group): 86 % of control group
[1]; 1 × 10^−4 mg/ml
  MTT assay (% of control group): 95.7 ± 0.7 % of control group
[1]; 1 × 10^−5 mg/ml
  MTT assay (% of control group): 97.3 ± 1.6 % of control group
[1]; 1 × 10^−6 mg/ml
  MTT assay (% of control group): 90.5 ± 0.9 % of control group
[1]; 1 × 10^−6 mg/ml, listed as genistein
  MTT assay (% of control group): 90.5 % of control group
[1]; 1 × 10^−7 mg/ml
  MTT assay (% of control group): 95.9 ± 1.6 % of control group
[1]; 1 × 10^−8 mg/ml
  MTT assay (% of control group): 96.9 ± 2.7 % of control group
[1]; 1 × 10^−9 mg/ml
  MTT assay (% of control group): 91.3 ± 0.6 % of control group
[1]; 1 × 10^−9 mg/ml, listed as genistein
  MTT assay (% of control group): 91 % of control group
[2]; 1 × 10^−2 mg/ml
  ALP activity (% of control group): 62.3 ± 3.4 % of control group
[2]; 1 × 10^−3 mg/ml
  ALP activity (% of control group): 98.8 ± 6.9 % of control group
[2]; 1 × 10^−4 mg/ml
  ALP activity (% of control group): 121.1 ± 6.2 % of control group
[2]; 1 × 10^−4 mg/ml, listed as genistein
  ALP activity (% of control group): 121 % of control group
[2]; 1 × 10^−5 mg/ml
  ALP activity (% of control group): 113.5 ± 7.3 % of control group
[2]; 1 × 10^−6 mg/ml
  ALP activity (% of control group): 103.8 ± 8.7 % of control group
[2]; 1 × 10^−7 mg/ml
  ALP activity (% of control group): 109.3 ± 9.6 % of control group
[2]; 1 × 10^−8 mg/ml
  ALP activity (% of control group): 101.5 ± 8.8 % of control group
[2]; 1 × 10^−9 mg/ml
  ALP activity (% of control group): 106.1 ± 6.4 % of control group
Ovariectomized rats [3]
  TBA (trabecular bone area) of tibia: 47.65 ± 2.07 ×10^4 μm^2
  Change Rate (%) of TBA of tibia, of control group: 137.62 ± 5.98%
Ovariectomized rats [3]; listed as genistein
  Change Rate (%) of TBA of tibia, of control group: 138%
Ovariectomized rats [4]
  TBA (trabecular bone area) of lumbars: 86.58 ± 3.00 ×10^4 μm^2
  Change Rate (%) of TBA of lumbars, of control group: 128.23 ± 4.45 %
Ovariectomized rats [4]; listed as genistein
  Change Rate (%) of TBA of lumbars, of control group: 128%
Ovariectomized rats [5]; OVX rats after drug administration
  White blood cell count, before versus after operation (in words): did not show any changes
Ovariectomized rats [5]; [7]
  Concentration of hemoglobin(Hb): 14.70 ± 0.22 g/dL
  Granulocyte count: 2.38 ± 0.37 ×10^3 cells/μl
  Hematocrit(Ht): 40.66 ± 0.56 %
  Lymphocyte count: 15.25 ± 3.21 ×10^3 cells/μl
  Monocyte count: 0.80 ± 0.19 ×10^3 cells/μl
  Red blood cell(RBC) count: 7.17 ± 0.13 ×10^6 cells/μl
  White blood cell count: 21.50 ± 2.53 ×10^3 cells/μl
Ovariectomized rats [5]; before operation (baseline)
  Concentration of hemoglobin(Hb): 15.82 ± 0.27 g/dL
  Granulocyte count: 2.23 ± 0.10 ×10^3 cells/μl
  Hematocrit(Ht): 42.76 ± 0.65%
  Lymphocyte count: 19.68 ± 4.52 ×10^3 cells/μl
  Monocyte count: 0.77 ± 0.09 ×10^3 cells/μl
  Red blood cell(RBC) count: 7.32 ± 0.13 ×10^6 cells/μl
  White blood cell count: 27.30 ± 4.85 ×10^3 cells/μl
Ovariectomized rats [6]; [8]
  Concentration of ALP in plasma: 212.10 ± 17.92 U/dL
  Concentration of HDL-cholesterol in plasma: 35.26 ± 1.92 mg/dL
  Concentration of LDL-cholesterol in plasma: 60.47 ± 7.04 mg/dL
  Concentration of blood urea nitrogen (BUN): 18.26 ± 0.94 mg/dL
  Concentration of calcium in plasma: 8.97 ± 0.29 mg/dL
  Concentration of creatinin in plasma: 0.64 ± 0.02 mg/dL
  Concentration of inorganic phosphate in plasma: 6.47 ± 0.16 mg/dL
  Concentration of total cholesterol in plasma: 91.56 ± 3.65 mg/dL
Ovariectomized rats [6]; [9]
  Concentration of ALP in plasma: 127.14 ± 9.95^##$$ U/dL
  Concentration of HDL-cholesterol in plasma: 29.27 ± 1.98 mg/dL
  Concentration of LDL-cholesterol in plasma: 91.80 ± 6.57^##$$ mg/dL
  Concentration of blood urea nitrogen (BUN): 18.31 ± 0.86 mg/dL
  Concentration of calcium in plasma: 10.44 ± 0.22^$ mg/dL
  Concentration of creatinin in plasma: 0.82 ± 0.04^##$ mg/dL
  Concentration of inorganic phosphate in plasma: 5.62 ± 0.25 mg/dL
  Concentration of total cholesterol in plasma: 121.07 ± 6.53 mg/dL
Ovariectomized rats [6]; OVX rats, 10 mg/kg/day i.p.
  Level of inorganic phosphate 10 weeks after operation versus prior to operation (in words): remarkably decreased
  Plasma ALP activity 10 weeks after operation versus prior to and one week after operation (in words): significant decrease of ALP activity
Ovariectomized rats [6]; before operation (baseline)
  Concentration of ALP in plasma: 208.86 ± 19.72 U/dL
  Concentration of HDL-cholesterol in plasma: 61.12 ± 3.57 mg/dL
  Concentration of LDL-cholesterol in plasma: 24.39 ± 3.63 mg/dL
  Concentration of blood urea nitrogen (BUN): 16.82 ± 0.60 mg/dL
  Concentration of calcium in plasma: 10.61 ± 0.49 mg/dL
  Concentration of creatinin in plasma: 0.51 ± 0.04 mg/dL
  Concentration of inorganic phosphate in plasma: 7.18 ± 0.48 mg/dL
  Concentration of total cholesterol in plasma: 85.51 ± 5.45 mg/dL
